Measurements reported in publication PMC11766273, “Design, Synthesis, Anticancer Screening, and Mechanistic Study of Spiro-N-(4-sulfamoyl-phenyl)-1,3,4-thiadiazole-2-carboxamide Derivatives” (International Journal of Molecular Sciences, 2025).
Blank lines part the entries; values can stand above or below the molecule they belong to.

Assays:
[1] = target: hCA XII (Homo sapiens, UniProt O43570); parameters: method as in PMID 35671645, PMID 37577088, PMID 30978604, PMID 37776683; conditions: printed in Figure 1 for reported compounds; cited from earlier work
Chain of hCA XII (O43570 25-354): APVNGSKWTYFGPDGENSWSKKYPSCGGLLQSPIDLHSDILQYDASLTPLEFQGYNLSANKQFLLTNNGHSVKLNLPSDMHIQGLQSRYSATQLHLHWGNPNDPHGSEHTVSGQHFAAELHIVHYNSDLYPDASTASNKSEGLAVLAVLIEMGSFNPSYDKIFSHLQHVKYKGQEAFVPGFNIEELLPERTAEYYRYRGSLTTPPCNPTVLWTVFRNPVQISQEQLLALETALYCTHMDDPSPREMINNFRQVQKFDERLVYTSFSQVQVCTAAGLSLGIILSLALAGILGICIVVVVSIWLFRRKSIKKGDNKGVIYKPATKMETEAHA

[2] = target: hCA IX (Homo sapiens, UniProt Q16790); parameters: method as in PMID 35671645, PMID 37577088, PMID 30978604, PMID 37776683; conditions: printed in Figure 1 for reported compounds; cited from earlier work
[3] = system: colon HT29 cancer cell line; assay: MTT cell viability assay
Method: (§1) The growth percentage was calculated at different drug concentration
levels and at different times.
(§2) and WI 38 cell lines was determined utilizing established MTT test procedures.
(§3) All cell lines utilized were acquired from the Vacsera Cell Culture Library, Tissue
(§4) Culture Unit, Cairo, Egypt, with ATCC provenance.
(§5) concentrations that inhibited 50% of cell growth were tested three times, and the mean
(§6) was computed. Cells were grown in DMEM (Invitrogen/Life Technologies) augmented
(§7) with 10% FBS (Hyclone), 10 mg/ml of insulin (Sigma), and 1% penicillin-streptomycin.
(§8) Seed cells (density 1.2–1.8×10,000 cells/well) in 100 mL of complete growth medium and
(§9) 100 mL of the tested chemical per well in a 96-well plate for 24 h before the MTT testing.
(§10) In a standard experiment, 100 mL of serially diluted sterile testing substances were
(§11) introduced to achieve final concentrations ranging from 0.01 to 100 mM, utilizing
(§12) growth media as a negative control. Following 24 h of culture incubation, the
(§13) supernatants were discarded. The LOX IMVI, HT29, and RXF393 cell lines were
(§14) subjected to trypsinization and rinsed with calcium/magnesium-free PBS (pH 7.2). We
(§15) transferred cultures from the incubator to a laminar flow hood or sterile workspace.
(§16) Each test must incorporate a blank, providing complete media
(§17) balanced salt solution devoid of phenol red and serum. Incorporate reconstituted MTT
(§18) at a volume constituting 10% of the culture medium—re-incubate cultures for 2 to 4 h,
(§19) contingent upon cell type and optimal cell density. Upon completion of the incubation
(§20) period, the cultures from the incubator are extracted, and the resultant formazan
(§21) crystals are dissolved by adding an equivalent volume of MTT Solubilization Solution
Absorbance was spectrophotometrically
(§22) measured at a wavelength of 570 nm. Quantify the background absorbance of multi-
(§23) well plates at 690 nm and deduct this value from the data at 450 nm. Data from all
(§24) experiments were documented, and the viability percentage of cells was computed.

[4] = system: renal RXF393 cancer cell line; assay: MTT cell viability assay; conditions: for % viability: rxf393
Method: as §1
levels and at different times.
as §2, §3, §4, §5, §6, §7, §8, §9, §10, §11, §12, §13, §14, §15, §16, §17, §18, §19, §20, §21
Absorbance was spectrophotometrically
as §22, §23, §24

[5] = system: melanoma LOX IMVI cancer cell line; assay: MTT cell viability assay; conditions: for % viability: LOXIMVI
Method: as §1
levels and at different times.
as §2, §3, §4, §5, §6, §7, §8, §9, §10, §11, §12, §13, §14, §15, §16, §17, §18, §19, §20, §21
Absorbance was spectrophotometrically
as §22, §23, §24

[6] = system: RXF393 cells; assay: Cell cycle analysis (propidium iodide flow cytometry); conditions: RXF393 treated at IC50
Method: The impact of the target compound on cell cycle progression in the RXF393 cancer cell line was evaluated against doxorubicin as a positive control and untreated RXF393 as a negative control, utilizing a flow cytometry assay.
was assessed utilizing the Propidium Iodide Flow Cytometry Kit to quantify DNA
content following established protocols.
RXF393 cells were treated with the IC50 concentration of the target compound

[7] = in vitro; conditions: human, WI 38 normal cells
Method: as §1
levels and at different times.
as §2, §3, §4, §5, §6, §7, §8, §9, §10, §11, §12, §13, §14, §15, §16, §17, §18, §19, §20, §21
Absorbance was spectrophotometrically
as §22, §23, §24

[8] = system: renal RXF393 cell line; assay: Apoptosis assay (Annexin V-FITC/PI); format: cell-based, human; conditions: RXF393 treated at IC50

SMILES: NS(=O)(=O)c1ccc(NC(=O)Nc2ncc(-c3ccc(F)cc3)s2)cc1 [Compound I]
Ki [1]: 0.0276 µM
Ki [2]: 0.0136 µM

IC50 ([3]; HT29): 13.5 ± 0.71 µM
IC50 ([4]; RXF393, MTT): 13.5 ± 0.82 µM
IC50 ([5]; LOX IMVI): 6.08 ± 0.32 µM
IC50 at 24 h [7]: 18.1 ± 0.59 µM
SMILES: COc1cccc2c1C(=O)c1c(O)c3c(c(O)c1C2=O)C[C@@](O)(C(=O)CO)C[C@@H]3O[C@H]1C[C@H](N)[C@H](O)[C@H](C)O1 [Doxorubicin, doxorubicin, reference compound]
% viability ([3]; HT-29, 0.4uM): 79.36%
% viability ([3]; HT-29, 1.6uM): 68.43%
% viability ([3]; HT-29, 6.3uM): 57.377%
% viability ([3]; HT-29, 25uM): 45.5981%
% viability ([3]; HT-29, 100uM): 31.937%
Cytotoxicity IC50 SD ([4]; RXF 393, Table S2): 13.54 ± 0.82 µg/mL
% viability ([4]; 0.4ug, MTT): 78.52%
% viability ([4]; 1.6ug, MTT): 69.673%
% viability ([4]; 6.25ug, MTT): 54.451%
% viability ([4]; 25ug, MTT): 43.883%
% viability ([4]; 100ug, MTT): 34.98%
% viability ([5]; 0.4uM): 69.98%
% viability ([5]; 1.6uM): 58.61%
% viability ([5]; 6.3uM): 49.41%
% viability ([5]; 25uM): 41.5165%
% viability ([5]; 100uM): 29.521%
DNA Content %G2/M ([6]; DMSO control 19.51): 11.01%
DNA Content %S ([6]; DMSO control 28.54): 16.81%
DNA Content %G0-G1 ([6]; DMSO control 51.95): 72.18%
viability at 24 h, 0.4 µM [7]: 74.5%
viability at 24 h, 1.6 µM [7]: 63.2%
viability at 24 h, 6.3 µM [7]: 52.4%
viability at 24 h, 25 µM [7]: 46.6%
viability at 24 h, 100 µM [7]: 38.4%
Apoptosis Late ([8]; DMSO control 0.18): 17.36%
Apoptosis Early ([8]; DMSO control 0.42): 12.64%
Necrosis ([8]; DMSO control 1.16): 9.02%
